This is an account of results in BindingDB's records for PubMed 32898763 (n/a, 2020).

The target of assay [1] is Prostaglandin G/H synthase 1 (Homo sapiens, UniProt P23219). Put plainly: Inhibition of COX-1 (unknown origin).
Assay [2] concerns the target T1, Prostaglandin G/H synthase 2 (Homo sapiens, UniProt P35354).
T1 sequence (P35354 whole entry): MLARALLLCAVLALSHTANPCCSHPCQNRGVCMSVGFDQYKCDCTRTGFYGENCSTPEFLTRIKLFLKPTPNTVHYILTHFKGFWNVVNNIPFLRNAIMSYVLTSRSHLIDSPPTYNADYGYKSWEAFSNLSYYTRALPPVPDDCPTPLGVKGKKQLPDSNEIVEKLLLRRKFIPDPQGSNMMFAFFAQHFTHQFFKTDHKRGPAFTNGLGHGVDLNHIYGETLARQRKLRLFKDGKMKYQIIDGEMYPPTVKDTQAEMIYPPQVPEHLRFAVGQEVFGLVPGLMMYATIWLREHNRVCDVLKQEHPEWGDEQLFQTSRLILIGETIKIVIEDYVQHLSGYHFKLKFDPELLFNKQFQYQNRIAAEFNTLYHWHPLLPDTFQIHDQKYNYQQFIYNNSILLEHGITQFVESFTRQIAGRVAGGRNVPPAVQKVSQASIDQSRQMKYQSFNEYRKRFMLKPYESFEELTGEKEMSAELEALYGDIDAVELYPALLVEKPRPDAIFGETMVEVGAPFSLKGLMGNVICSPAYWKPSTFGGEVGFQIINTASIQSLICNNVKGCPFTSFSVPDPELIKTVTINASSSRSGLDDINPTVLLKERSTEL
Put plainly: Inhibition of COX-2 (unknown origin).

Sequence of Prostaglandin G/H synthase 1 (P23219 whole entry): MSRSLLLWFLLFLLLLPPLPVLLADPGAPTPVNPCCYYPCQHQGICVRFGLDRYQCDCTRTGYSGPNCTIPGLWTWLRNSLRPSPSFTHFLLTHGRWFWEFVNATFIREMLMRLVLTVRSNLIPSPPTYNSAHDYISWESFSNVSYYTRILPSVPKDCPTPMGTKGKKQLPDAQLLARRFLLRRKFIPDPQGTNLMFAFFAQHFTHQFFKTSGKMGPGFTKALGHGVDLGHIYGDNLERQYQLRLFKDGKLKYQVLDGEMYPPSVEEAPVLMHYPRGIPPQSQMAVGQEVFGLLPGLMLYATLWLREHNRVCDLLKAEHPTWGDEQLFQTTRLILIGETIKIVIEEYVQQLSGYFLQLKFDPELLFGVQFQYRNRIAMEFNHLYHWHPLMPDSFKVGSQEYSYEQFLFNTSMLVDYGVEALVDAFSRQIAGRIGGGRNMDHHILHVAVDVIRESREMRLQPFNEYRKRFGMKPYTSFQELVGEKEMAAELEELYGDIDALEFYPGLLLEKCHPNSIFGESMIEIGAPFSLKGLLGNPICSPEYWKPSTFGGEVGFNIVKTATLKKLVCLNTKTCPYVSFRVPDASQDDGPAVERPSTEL

For the compound `CCC(=CCN1Cc2cc(C)cc3nc(O)n(c23)C[C@@H]1C)CC`, the half-inhibitory concentration (IC50) in assay [1] was determined as 9.56 µM; in assay [2], 0.1 µM.
For the compound `CCC(=CCN1Cc2cc(Cl)cc3nc(S)n(c23)CC1C)CC` (stereo unspecified), the IC50 in assay [1] worked out at 9.56 µM; in assay [2], 0.1 µM.
With `CC1Cn2c(S)nc3cc(Cl)cc(c32)CN1CC1CCC1` (stereo unspecified), the IC50 in assay [1] was determined as 9.56 µM; in assay [2], 0.1 µM.
